According to patent US7034027B2, “Fused heterocyclic derivatives as phosphodiesterase inhibitors” (Lilly Icos LLC, priority 2000, dated 2006):

What was measured:
human recombinant PDE5 = target: T1, human recombinant PDE5 (Homo sapiens, UniProt O76074); experiment: Inhibitory effect on cGMP-PDE (PDE5 IC50, one-step assay); assay type: biochemical; conditions: in vitro
T1 construct: host or cells: Saccharomyces cerevisiae BJ2-54 (exemplary method)
Description: The compounds of structural formula (I) were tested for an ability to inhibit PDE5. The ability of a compound to inhibit PDE5 activity is related to the IC50 value for the compound, i.e., the concentration of inhibitor required for 50% inhibition of enzyme activity. The IC50 value for compounds of structural formula (I) were determined using recombinant human PDE5.
cGMP-PDE activity of compounds of the present invention was measured using a one-step assay adapted from Wells et al., Biochim. Biophys. Acta, 384, 430 (1975). The reaction medium contained 50 mM Tris-HCl, pH 7.5, 5 mM magnesium acetate, 250 μg/ml 5′-Nucleotidase, 1 mM EGTA, and 0.15 μM 8-[H^3]-cGMP. Unless otherwise indicated, the enzyme used was a human recombinant PDE5 (ICOS Corp., Bothell, Wash.).
Compounds of the invention were dissolved in DMSO finally present at 2% in the assay.

| Compound | melting point | IC50 (human recombinant PDE5) |
| --- | --- | --- |
| NC(=O)CC[C@@H]1NC(=O)[C@H]2Cc3c([nH]c4ccccc34)[C@@H](c3ccc4c(c3)OCO4)N2C1=O [Example 2, 3-((3S,6R,12aR)-6-Benzo[1,3]dioxol-5-yl-1,4-dioxo-1,2,3,4,6,7,12,12a-octahydropyrazino[1′,2′:1,6]-pyrido[3,4-b]indo-3-yl)propionamide] | 78 to 82 °C | 2.2 nM |
| O=C1NNC(=O)N2[C@H](c3ccc4c(c3)OCO4)c3[nH]c4ccccc4c3C[C@H]12 [Example 3, (5aR,10R)-10-Benzo[1,3]dioxol-5-yl-5,5a,7,8,10,11-hexahydro-7,8,9a,11-tetraazabenzo[b]fluorene-6,9-dione] | 188 to 194 °C | 113 nM |
| CN1C(=O)[C@H]2Cc3c([nH]c4ccccc34)C(c3ccc4c(c3)OCO4)N2C(=O)C1(C)C (mixture of isomers) [Example 1, (12a,R)-6-Benzo[1,3]dioxol-5-yl,2,3,3-trimethyl-2,3,6,7,12,12a-hexahydropyrazino[1′,2′:1,6]-pyrido[3,4-b]indole-1,4-dione] | 225 to 235 °C | 161 nM |

Results, then the compound that gave them:

| melting point | IC50 (human recombinant PDE5) | Compound |
| --- | --- | --- |
| 222 to 227 °C | 0.6 nM | CC(C)(C)OC(=O)CC[C@@H]1NC(=O)[C@H]2Cc3c([nH]c4ccccc34)[C@@H](c3ccc4c(c3)OCO4)N2C1=O [Example 5] |
| 179 to 182 °C | 593 nM | CN1CCC(=O)N2[C@H](c3ccc4c(c3)OCO4)c3[nH]c4ccccc4c3C[C@H]2C1=O [Example 4, (5aS,11R)-11-Benzo[1,3]dioxol-5-yl-7-methyl-5,5a,8,9,11,12-hexahydro-7H-7,10a,12-triaza-cyclohepta[b]fluorene-6,10-dione] |
| 194 to 200 °C | 28 nM | O=C1N[C@H](CO)C(=O)N2[C@H](c3ccc4c(c3)OCO4)c3[nH]c4ccccc4c3C[C@H]12 [Example 8, (3R,6R,12aR)-6-Benzo[1,3]dioxo-5-yl-3-hydroxymethyl-2,3,6,7,12,12a-hexahydropyrazino[1′,2′:1,;6]pyrido[3,4-b]indole-1,4-dione] |
| – | 1 nM | O=C(O)CC[C@@H]1NC(=O)[C@H]2Cc3c([nH]c4ccccc34)[C@@H](c3ccc4c(c3)OCO4)N2C1=O [Example 6, 3-((3S,6R,12aR)-6-Benzo[1,3]dioxol-5-yl-1,4-dioxo-1,2,3,4,6,7,12,12a-octahydropyrazino[1′,2′:1,6]pyrido[3,4-b]indole-3-yl)propionic acid] |
| – | 0.2 nM | CC(C)OC(=O)CC[C@@H]1NC(=O)[C@H]2Cc3c([nH]c4ccccc34)[C@@H](c3ccc4c(c3)OCO4)N2C1=O [Example 7, 3-((3S,6R,12aR)-6-Benzo[1,3]dioxol-5-yl-1,4-dioxo-1,2,3,4,6,7,12,12a-octahydropyrazino[1′,2′:1,6]pyrido[3,4-b]indol-3-yl)-propionic acid isopropyl ester] |
